We go through 19 compounds from patent US20260315604A1, “OTUB1 Small-Molecule Binders and OTUB1-recruiting Deubiquitinase-targeting Chimeras (DUBTACs)” (ICAHN SCHOOL OF MEDICINE AT MOUNT SINAI, priority 2023, published 2026).

T1 sequence (Q96FW1 whole entry): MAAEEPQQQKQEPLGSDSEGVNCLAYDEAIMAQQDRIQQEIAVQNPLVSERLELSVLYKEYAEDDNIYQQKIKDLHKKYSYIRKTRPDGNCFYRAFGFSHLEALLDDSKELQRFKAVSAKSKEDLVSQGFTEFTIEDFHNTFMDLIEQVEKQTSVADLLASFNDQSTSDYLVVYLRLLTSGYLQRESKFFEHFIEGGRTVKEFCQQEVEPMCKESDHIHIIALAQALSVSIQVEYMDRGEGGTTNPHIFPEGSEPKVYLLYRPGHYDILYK

One assay addresses T1, Human OTUB1 wild-type (Homo sapiens, UniProt Q96FW1).
T1 construct: His tag (N); made in house; host or cells: E. coli BL21-CodonPlus (DE3)-RIPIL
The assay can be described thus: Covalent modification of OTUB1 (adduct formation), mass spectrometry-based assay (OTUB1 covalent binders; selected CFTR or cGAS based bivalent compounds). Type of assay: binding. The conditions noted are these: covalent adduct formation with OTUB1 protein. The gist of the method:
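His-tagged human OTUB1 (10 μM), E. coli-expressed, incubated with compound (2500 μM) in 50 mM Tris-HCl pH 7.5, 150 mM NaCl, 0.5 mM TCEP for 1 h at room temperature. Adduct detected by intact-protein LC/ESI-TOF mass spectrometry after buffer exchange; duplicates.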
On to `C=CC(=O)N1CCN(c2ccc(C)o2)C(=O)C1` [EN523, reference compound], for which the “% of OTUB1 modified” value is given as 40%.
On to `CC(C)c1ccc(NC(=O)C2CN(C(=O)C#CC(C)(C)N(C)C)C2)s1` [XS224-117, 1-(4-(dimethylamino)-4-methylpent-2-ynoyl)-N-(5-isopropylthiophen-2-yl)azetidine-3-carboxamide], for which the “% of OTUB1 modified” value was 60%.
Same read-out and setting: the same measure for `CN(C)CC#CC(=O)N1CC(C(=O)Nc2csc3ccccc23)C1` [XS224-118, N-(benzo[b]thiophen-3-yl)-1-(4-(dimethylamino)but-2-ynoyl)azetidine-3-carboxamide]: 10%; for `CN(C)C(C)(C)C#CC(=O)N1CC(C(=O)Nc2csc3ccccc23)C1` [XS224-119, N-(benzo[b]thiophen-3-yl)-1-(4-(dimethylamino)-4-methylpent-2-ynoyl)azetidine-3-carboxamide]: 60%; for `Cc1ccc(C(=O)N2CC(NC(=O)/C=C/CN(C)C)C2)s1` [XS224-143, (E)-4-(dimethylamino)-N-(1-(5-methylthiophene-2-carbonyl)azetidin-3-yl)but-2-enamide]: 7%.
On the same count and under the same terms, the same measure for `Cc1ccc(C(=O)N2CC(NC(=O)C#CCN(C)C)C2)s1` [XS224-144, 4-(dimethylamino)-N-(1-(5-methylthiophene-2-carbonyl)azetidin-3-yl)but-2-ynamide]: 90%; for `Cc1ccc(C(=O)N2CC(NC(=O)C#CC(C)(C)N(C)C)C2)s1` [XS224-145, 4-(dimethylamino)-4-methyl-N-(1-(5-methylthiophene-2-carbonyl)azetidin-3-yl)pent-2-ynamide]: 60%; for `Cc1ccc(C(=O)NC2CC(NC(=O)C#CCN(C)C)C2)s1` (centres unmarked) [XS224-148, N-(3-(4-(dimethylamino)but-2-ynamido)cyclobutyl)-5-methylthiophene-2-carboxamide]: 90%.
As for `Cc1ccc(C(=O)NC2CC(NC(=O)C#CC(C)(C)N(C)C)C2)s1` (centres unmarked) [XS224-149, N-(3-(4-(dimethylamino)-4-methylpent-2-ynamido)cyclobutyl)-5-methylthiophene-2-carboxamide], the “% of OTUB1 modified” value was determined as 15%.
Turning to `Cc1ccc(C(=O)NC2CN(C(=O)C#CCN(C)C)C2)s1` [XS224-150, N-(1-(4-(dimethylamino)but-2-ynoyl)azetidin-3-yl)-5-methylthiophene-2-carboxamide], the “% of OTUB1 modified” value was 73%.
Regarding `CN(C)C/C=C/C(=O)N1CC(NC(=O)c2cc3ccccc3s2)C1` [XS224-154, (E)-N-(1-(4-(dimethylamino)but-2-enoyl)azetidin-3-yl)benzo[b]thiophene-2-carboxamide], the “% of OTUB1 modified” value came out at 80%.
As to `CN(C)CC#CC(=O)N1CC(NC(=O)c2cc3ccccc3s2)C1` [XS224-155, A-(1-(4-(dimethylamino)but-2-ynoyl)azetidin-3-yl)benzo[b]thiophene-2-carboxamide], the “% of OTUB1 modified” value is recorded as 97%.
Take `CN(C)C(C)(C)C#CC(=O)N1CC(NC(=O)c2cc3ccccc3s2)C1` [XS224-156, N-(1-(4-(dimethylamino)-4-methylpent-2-ynoyl)azetidin-3-yl)benzo[b]thiophene-2-carboxamide]: the “% of OTUB1 modified” value worked out at 85%.
Consider `CN(C)C/C=C/C(=O)N1CC(NC(=O)c2cc3c(s2)CCCC3)C1` [XS224-157, (E)-N-(1-(4-(dimethylamino)but-2-enoyl)azetidin-3-yl)-4,5,6,7-tetrahydrobenzo[b]thiophene-2-carboxamide], for which the “% of OTUB1 modified” value was found to be 49%.
The same measure, in the same setting: for `CN(C)CC#CC(=O)N1CC(NC(=O)c2cc3c(s2)CCCC3)C1` [XS224-158, N-(1-(4-(dimethylamino)but-2-ynoyl)azetidin-3-yl)-4,5,6,7-tetrahydrobenzo[b]thiophene-2-carboxamide] the value was 92%; for `CN(C)C(C)(C)C#CC(=O)N1CC(NC(=O)c2cc3c(s2)CCCC3)C1` [XS224-159, N-(1-(4-(dimethylamino)-4-methylpent-2-ynoyl)azetidin-3-yl)-4,5,6,7-tetrahydrobenzo[b]thiophene-2-carboxamide], 92%.

A further assay has as its system OTUB1.
Assay: not given
Particulars: background statement; cited from earlier work.
As to `C=CC(=O)N1CCN(c2ccc(C)o2)C(=O)C1` [EN523, reference compound], the “binding affinity to OTUB1” value is “low binding affinity to OTUB1”.

A further assay has as its system OTUB1.
Assay: not given
Particulars: background statement; cited from earlier work. The source holds these as a separate data set.
For the compound `Cc1ccc(S(=O)(=O)Nc2cc(C(F)(F)F)ccc2C(=O)Nc2nc(-c3ccccc3)cs2)cc1` [ML364], the “inhibition of the enzymatic activity of OTUB1” value is on record as “inhibit the enzymatic activity of OTUB1”.

For the next assay, the target named is T2, cGAS and OTUB1 (Homo sapiens, UniProt Q8N884+Q96FW1).
T2 construct: other panels use HeLa cells; recombinant His-OTUB1 from E. coli described
T2 sequence (Q8N884 whole entry): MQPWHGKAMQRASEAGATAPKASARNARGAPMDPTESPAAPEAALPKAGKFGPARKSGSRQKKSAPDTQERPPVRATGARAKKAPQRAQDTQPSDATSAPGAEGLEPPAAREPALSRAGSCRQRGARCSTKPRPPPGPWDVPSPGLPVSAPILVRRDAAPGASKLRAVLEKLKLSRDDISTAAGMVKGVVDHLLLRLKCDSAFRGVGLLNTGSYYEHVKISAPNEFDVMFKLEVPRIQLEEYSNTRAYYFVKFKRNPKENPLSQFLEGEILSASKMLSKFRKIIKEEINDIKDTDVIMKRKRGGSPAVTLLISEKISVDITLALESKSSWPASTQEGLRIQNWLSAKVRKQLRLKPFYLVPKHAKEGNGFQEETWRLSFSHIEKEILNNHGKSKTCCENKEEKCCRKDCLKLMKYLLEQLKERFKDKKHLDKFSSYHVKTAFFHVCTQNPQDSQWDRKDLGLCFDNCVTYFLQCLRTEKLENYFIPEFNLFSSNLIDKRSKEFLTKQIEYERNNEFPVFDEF
T2 sequence (Q96FW1 whole entry): as the sequence (Q96FW1 whole entry) above
The assay can be described thus: cGAS co-elution with OTUB1. Particulars: in the presence of compound; FIG. 6F. Type of assay: binding.
Take `CN(C)C/C=C/C(=O)N1CCN(c2ccc(CCC(=O)NCCCCCCCCCNC(=O)Cn3ccc(-c4cc(Cl)c(Cl)c5[nH]c6c(c45)CN(C(=O)CO)CC6)n3)s2)C(=O)C1` [MS7829]: the “co-elution of cGAS with OTUB1” value is “cGAS co-elutes with OTUB1”.
Consider `CN(C)C/C=C/C(=O)N1CCN(c2ccc(CCNC(=O)CCCCCCCCCC(=O)NCCn3ccc(-c4cc(Cl)c(Cl)c5[nH]c6c(c45)CN(C(=O)CO)CC6)n3)s2)C(=O)C1` [mS8588, (E)-N1-(2-(3-(6,7-dichloro-2-(2-hydroxyacetyl)-2,3,4,5-tetrahydro-1H-pyrido[4,3-b]indol-9-yl)-1H-pyrazol-1-yl)ethyl)-N11-(2-(5-(4-(4-(dimethylamino)but-2-enoyl)-2-oxopiperazin-1-yl)thiophen-2-yl)ethyl)undecanediamide], for which the “co-elution of cGAS with OTUB1” value was “cGAS co-elutes with OTUB1”.
